SMILES strings stand for the structures.

These results are taken from US20210255193A1, “LYSINE REACTIVE PROBES AND USES THEREOF” (The Scripps Research Institute, priority 2017, published 2021).

In one experiment the target is T1, PFKP (Homo sapiens, UniProt Q01813, K688R).
T1 construct: Flag; expressed in transfected cells; host or cells: HEK 293T, transient transfection, soluble lysate; cDNA clone 5180268 (Dharmacon)
Put plainly: PFKP functional assay. Type of experiment: biochemical. Particulars: K688R mutant. The method, then:
PFKP functional assay. For inhibitor experiments, 50 μl of soluble proteome (initial total protein concentration: 1 mg ml^−1) from HEK 293T cells expressing PFKP (WT or K688R mutant) or mock transfected cells (empty vector; negative control) were incubated with 1 μl 50× of the compound in DMSO or DMSO for the positive or negative control for 1 h at room temperature. Lysates were diluted 40× with dilution buffer (PBS containing 0.2 mg ml^−1 BSA and 5 mM MgCl2) and 40 μl were added into a clear bottom 384 well plate. 10 μl of a mixture of 3.5 μl PBS, 2.5 μl fructose-6-phosphate (100 mM), 1 μl NADH (20 mM), 1 μl ATP (50 mM), 1 μl aldolase (50 U ml^−1) and 1 μl GDH/TPI (500 U ml^−1 TPI, 50 U ml^−1 GDH) were added to start the reaction. The absorbance of NADH was measured at 340 nm every minute for 30 min.
Calculation of relative activity or percent inhibition. For PNPO, PFKP, NUDT2 and G6PD, the slope of the linear regression of the linear portion of the absorbance or fluorescence over time was used as measure their activity. Apparent activity was calculated relative to the WT. Percent inhibition was calculated relative to the positive and negative control and used to calculate IC50 values by nonlinear regression analysis from a dose-response curve generated using GraphPad Prism 7.

For another experiment, the target named is T2, TGIF1-SIN3A interaction (Homo sapiens, UniProt Q96ST3).
T2 construct: expressed in transfected cells; host or cells: SILAC HEK 293T
Put plainly: ABPP-SILAC IP experiment for SIN3A interacting proteins. Type of experiment: binding. Particulars: 21 50 μM. The method, then:
(§1) ABPP-SILAC IP experiment for SIN3A interacting proteins. All SILAC experiments were performed using the isotopically labeled human HEK 293T cell line generated by 8 passages in either light (100 μg ml^−1 each of L-arginine and L-lysine) or heavy (100 μg ml^−1 each of [^13C6^15N4]L-arginine and [^13C6^15N2]L-lysine) SILAC DMEM media (Thermo Scientific) supplemented with 10% dialyzed fetal calf serum, penicillin, streptomycin and glutamine. 2×10^5 SILAC HEK 293T cells were plated in 6 cm dishes in either heavy or light labeled SILAC media. Cells were transfected the next day with 1 μg of FLAG-GFP, or FLAG-SIN3A wild type, K155R, or K155W constructs as indicated. After 48 hours, cells were rinsed with ice-cold PBS and suspended in cold IP-lysis buffer (0.5% Chaps, 50 mM Hepes pH 7.4, 150 mM NaCl, and EDTA-free protease inhibitors and phosphatase inhibitors (Roche)) by gentle sonication. Samples were rotated for 30 minutes at 4° C. to complete lysis. For compound treatment experiments, 50 μM (final concentration) of 21 was added to samples prior to rotation. Samples were clarified by centrifugation for 1 minute at 16,000 rpm, and protein concentration was measured using the DC Protein Assay kit (Bio-Rad). Samples were normalized to 2 mg/mL by addition of cold IP-lysis buffer. 25 μL of anti-FLAG-M2 beads was added to the clarified supernatant and incubated for 3 h while rotating at 4° C. Beads were washed three times with cold PBS, and then eluted with 40 μL of […] for 10 min at 65° C. […] LC-MS spectra were collected and analyzed as described above with the following modifications. […] A list of all proteins enriched preferentially by SIN3A was generated from a comparison of SIN3A wild type vs GFP immunoprecipitations, including all proteins with at least two distinct quantified peptide sequences and a median ratio greater than or equal to 5 (R>5). […] Furthermore, if there were at least two quantified unique peptides, the median ratio of each protein's unique peptides (not occurring in any other human protein) were reported.

The target in a further experiment is T3, TGIF2-SIN3A interaction (Homo sapiens, UniProt Q96ST3).
T3 construct: expressed in transfected cells; host or cells: SILAC HEK 293T
Described as above. The experiment is classed as binding. The note with it: 21 50 μM. The method, then: as §1

T2 sequence (Q96ST3 1-400): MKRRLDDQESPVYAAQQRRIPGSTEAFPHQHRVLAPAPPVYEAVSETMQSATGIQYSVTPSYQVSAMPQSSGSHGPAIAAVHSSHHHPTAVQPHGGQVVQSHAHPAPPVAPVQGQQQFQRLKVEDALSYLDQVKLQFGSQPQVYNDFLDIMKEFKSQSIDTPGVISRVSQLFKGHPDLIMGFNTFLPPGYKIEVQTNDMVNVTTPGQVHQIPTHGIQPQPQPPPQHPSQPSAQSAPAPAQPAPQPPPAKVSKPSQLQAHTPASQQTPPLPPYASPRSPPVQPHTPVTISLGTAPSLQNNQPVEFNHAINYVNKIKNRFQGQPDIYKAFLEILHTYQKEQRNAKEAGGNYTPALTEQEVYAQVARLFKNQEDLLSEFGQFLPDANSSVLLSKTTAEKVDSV
T3 sequence (Q96ST3 1-400): as above
T1 sequence (Q01813 whole entry K688R): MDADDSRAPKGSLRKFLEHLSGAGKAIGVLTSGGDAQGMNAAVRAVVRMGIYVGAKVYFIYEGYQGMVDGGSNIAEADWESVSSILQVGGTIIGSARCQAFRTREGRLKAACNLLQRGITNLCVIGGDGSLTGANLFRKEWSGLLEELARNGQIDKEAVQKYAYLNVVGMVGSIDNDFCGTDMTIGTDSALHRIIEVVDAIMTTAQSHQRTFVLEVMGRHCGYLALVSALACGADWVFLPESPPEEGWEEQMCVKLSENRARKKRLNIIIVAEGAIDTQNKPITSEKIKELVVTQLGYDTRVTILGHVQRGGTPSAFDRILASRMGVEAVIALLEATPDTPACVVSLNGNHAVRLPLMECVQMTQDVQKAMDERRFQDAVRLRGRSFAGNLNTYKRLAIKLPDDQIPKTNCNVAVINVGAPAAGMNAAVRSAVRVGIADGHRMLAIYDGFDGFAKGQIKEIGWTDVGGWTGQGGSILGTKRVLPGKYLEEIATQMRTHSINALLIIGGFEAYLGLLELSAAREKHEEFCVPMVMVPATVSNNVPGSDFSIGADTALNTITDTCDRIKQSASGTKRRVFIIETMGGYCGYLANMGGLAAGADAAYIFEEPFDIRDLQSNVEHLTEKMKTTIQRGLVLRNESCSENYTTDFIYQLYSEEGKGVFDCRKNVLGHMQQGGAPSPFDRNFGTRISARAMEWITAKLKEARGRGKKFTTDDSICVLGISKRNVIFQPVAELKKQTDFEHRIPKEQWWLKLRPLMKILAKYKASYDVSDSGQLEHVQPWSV

With `O=C(Oc1c(F)c(F)c(F)c(F)c1F)C(c1ccccc1)c1ccccc1` [fragment 20, Pentafluorophenyl 2,2-diphenylacetate], at PFKP, the “inhibition of K688R-PFKP mutant activity” value is on record as “not the K688R-PFKP mutant”.

For the compound `O=C(Oc1c(F)c(F)c(F)c(F)c1F)c1cc(C(F)(F)F)cc(C(F)(F)F)c1` [fragment 21, Pentafluorophenyl 3,5-bis(trifluoromethyl)benzoate], the “effect on TGIF1-SIN3A interaction” value at TGIF1-SIN3A interaction is reported as “strongly blocked the TGIF1-SIN3A interaction”. The “effect on TGIF2-SIN3A interaction” value at TGIF2-SIN3A interaction is on record as “marginal effect”.
